According to US12358948B2, “Neurotensinergic agonists and methods of using same preventing or treating pain” (priority 2019, dated 2025):
Where a SMILES comes first, the peptide text is derived from it. Bridges are numbered along the chain shown (N, C = ends). [ ]: non-standard residue; d: D form. Phe(4-CF3) = N[C@@H](Cc1ccc(C(F)(F)F)cc1)C(=O)O; Phe(4-I) = N[C@@H](Cc1ccc(I)cc1)C(=O)O; Ala(cPr) = N[C@@H](CC1CC1)C(=O)O; Cit = NC(=O)NCCC[C@H](N)C(=O)O; AllylGly = C=CC[C@H](N)C(=O)O; Aic = NC1(C(=O)O)Cc2ccccc2C1; Cba = N[C@@H](CC1CCC1)C(=O)O; Nle = CCCC[C@H](N)C(=O)O; Nva = CCC[C@H](N)C(=O)O; Dap = NC[C@H](N)C(=O)O

How the values were obtained:
[1] = target: T1, hNTS2 receptor (Homo sapiens, UniProt O95665); assay: Competitive radioligand binding assay on the hNTS2 receptor; conditions: for IC50: displacement of 125I-[Tyr3]-NT, membranes of 1321N1 cells expressing hNTS2, read-out: IC50 NTS2 (converted); for Selectivity: ratio IC50 for NTS1 : IC50 for NTS2
T1 construct: membranes prepared from them
Procedure: (§1) CHO-K1 (Chinese Hamster Ovary) cells stably expressing hNTS1 and 1321N1 cells stably expressing hNTS2 (ES-690-C and ES-691-C from PerkinElmer, Montréal, Canada) were cultured respectively in Ham's F12 and in DMEM culture media. Culture media were supplemented with 10% FBS, 100 U/mL penicillin, 100 μg/mL streptomycin, 20 mM HEPES, and 0.4 mg/mL G418 at 37° C. in a humidified chamber at 5% CO2.
(§2) The cells expressing hNTS1 were frozen when they reached 80% confluency. They were scrapped off the dish with 10 mM Tris buffer, 1 mM EDTA, pH 7.5 and centrifuged at 15,000 g for 5 min at 4° C. The pellet was then re-suspended in 1 mL binding buffer. The cells expressing hNTS2 were also frozen when they reached 80% confluency. They were scraped off the dish with PBS, 0.5 mM EDTA, pH 7.5 and sonicated for 5 minutes (pulse 30 s/5 s off, amplitude 40%). They were ultracentrifuged at 100 000 g for 60 minutes at 4° C. The pellet was re-suspended in 1 mL freezing buffer (PBS, glycerol, 0.5 mM EDTA), sonicated for 1 minute (pulse 30 s/5 s off, amplitude 50%) and further diluted in binding buffer. Competitive radioligand binding experiments were performed by incubating 15 μg of cell membranes expressing the hNTS1 receptor with […] of ^125I-[Tyr^3]-NT (2200 Ci/mmol) or 50 μg of cell membranes expressing the hNTS2 receptor with […] of ^125I-[Tyr^3]-NT in binding buffer (50 mM Tris-HCl, pH 7.5, 0.2% BSA) in the presence of increasing concentrations of analogues ranging from 10^−11 to 10^−4 M for 60 min at 25° C. After incubation, the binding reaction mixture was transferred in PEI-coated 96-well filter plates (glass fiber filters GF/B, Millipore, Billerica, MA). Reaction was terminated by filtration, and plates were washed three times with 200 μL ice-cold binding buffer. Glass filters were then counted using a γ-counter (2470 Wizard2, PerkinElmer, Mississauga, Ontario, Canada). Non-specific binding was measured in the presence of 10^−5 M unlabeled NT (8-13) and represented less than 5% of total binding. IC50 values were determined from competition curves as the unlabeled ligand concentration inhibiting 50% of ^125I-[Tyr^3]-NT-specific binding.
(§3) Competitive radioligand binding data were plotted using the nonlinear regression One-site-Fit Log(IC50) and represented the mean±SEM of at least three independent experiments in triplicates.

[2] = target: T2, hNTS1 receptor (Homo sapiens, UniProt P30989); assay: Competitive radioligand binding assay on the hNTS1 receptor; conditions: displacement of 125I-[Tyr3]-NT, membranes of CHO-K1 cells expressing hNTS1; read-out: IC50 NTS1
T2 construct: membranes prepared from them
Procedure: as §1, §2, §3

T1 sequence (O95665 whole entry): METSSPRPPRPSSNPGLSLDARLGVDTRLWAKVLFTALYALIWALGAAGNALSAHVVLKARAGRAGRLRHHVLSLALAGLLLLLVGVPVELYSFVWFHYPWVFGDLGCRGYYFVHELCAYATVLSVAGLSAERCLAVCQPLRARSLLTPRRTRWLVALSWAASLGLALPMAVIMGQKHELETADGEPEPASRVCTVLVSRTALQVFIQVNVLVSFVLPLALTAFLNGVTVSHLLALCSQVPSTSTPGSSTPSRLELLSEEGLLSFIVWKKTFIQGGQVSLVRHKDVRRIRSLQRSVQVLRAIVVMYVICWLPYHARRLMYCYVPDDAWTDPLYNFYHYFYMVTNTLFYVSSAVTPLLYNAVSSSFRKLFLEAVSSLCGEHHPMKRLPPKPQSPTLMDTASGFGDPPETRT
T2 sequence (P30989 whole entry): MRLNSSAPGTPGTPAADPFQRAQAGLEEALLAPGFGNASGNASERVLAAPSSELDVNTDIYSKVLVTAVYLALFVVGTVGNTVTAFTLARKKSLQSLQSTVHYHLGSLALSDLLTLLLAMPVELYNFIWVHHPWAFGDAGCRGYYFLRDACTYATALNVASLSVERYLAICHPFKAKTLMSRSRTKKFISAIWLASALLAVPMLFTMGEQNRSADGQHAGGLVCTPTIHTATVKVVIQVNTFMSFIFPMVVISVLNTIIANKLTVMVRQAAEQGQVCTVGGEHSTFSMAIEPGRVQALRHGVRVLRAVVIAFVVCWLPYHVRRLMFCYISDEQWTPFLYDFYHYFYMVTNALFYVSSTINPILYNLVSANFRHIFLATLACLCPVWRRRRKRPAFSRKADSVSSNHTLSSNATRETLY

| SMILES | IC50 [1] [µM] | Selectivity [1] | IC50 [2] [µM] |
| --- | --- | --- | --- |
| NCCCC[C@@H]1NC(=O)[C@H](CCCCN)NC(=O)[C@@H](N)CC=CC[C@@H](C(=O)N[C@@H](Cc2ccc(O)cc2)C(=O)N[C@@H](CC2CC2)C(=O)O)NC1=O [compound 65, c[G(All)KKG(All)]YA(cyclopropyl)] (H-[AllylGly]KK[AllylGly]Y[Ala(cPr)]-OH; staple 1-4) | 0.312 | >321 | > 100 |
| CCC[C@@H]1NC(=O)[C@H](CCCCN)NC(=O)[C@@H](N)CC=CC[C@@H](C(=O)N[C@@H](Cc2ccc(O)cc2)C(=O)N[C@@H](CC(C)C)C(=O)O)NC1=O [compound 58, c[G(All)KNvaG(All)]YL] (H-[AllylGly]K[Nva][AllylGly]YL-OH; staple 1-4) | 0.729 | >137 | > 100 |
| CC(C)C[C@H](NC(=O)[C@H](Cc1ccc(I)cc1)NC(=O)[C@@H]1CC=CC[C@H](N)C(=O)N[C@@H](CCCCN)C(=O)N[C@@H](CCCCN)C(=O)N1)C(=O)O [compound 78, c[G(All)KKG(All)]F(4-iodo)L] (H-[AllylGly]KK[AllylGly][Phe(4-I)]L-OH; staple 1-4) | 0.0155 | >6452 | > 100 |
| NCCCC[C@@H]1NC(=O)[C@H](CCCCN)NC(=O)[C@@H](N)CC=CC[C@@H](C(=O)N[C@@H](Cc2ccc(O)cc2)C(=O)N[C@@H](CC2CCC2)C(=O)O)NC1=O [compound 66, c[G(All)KKG(All)]YA(cyclobutyl)] (H-[AllylGly]KK[AllylGly]Y[Cba]-OH; staple 1-4) | 0.0272 | >3682 | > 100 |
| CC(C)C[C@H](NC(=O)[C@H](Cc1ccc(C(F)(F)F)cc1)NC(=O)[C@@H]1CC=CC[C@H](N)C(=O)N[C@@H](CCCCN)C(=O)N[C@@H](CCCCN)C(=O)N1)C(=O)O [compound 111, c[G(All)KKG(All)]F(4-CF3)L] (H-[AllylGly]KK[AllylGly][Phe(4-CF3)]L-OH; staple 1-4) | 0.0479 | >2087 | > 100 |
| CC(C)C[C@H](NC(=O)[C@H](Cc1ccc(O)cc1)NC(=O)[C@@H]1CCC(=O)NCCCC[C@H](N)C(=O)N[C@@H](CCCCN)C(=O)N[C@@H](CCCCN)C(=O)N1)C(=O)O [compound 101, c[KKKE]YL] (H-KKKEYL-OH; lactam 1-4) | 0.889 | >111 | > 100 |
| CC(C)C[C@H](NC(=O)[C@H](Cc1ccc(O)cc1)NC(=O)[C@@H]1CSSC[C@H](N)C(=O)N[C@@H](CCCCN)C(=O)N[C@@H](CCCCN)C(=O)N1)C(=O)O [compound 152, c[CKKC]YL] (H-CKKCYL-OH; disulfide 1-4) | 1.4 | 7 | > 1000 |
| CC(C)C[C@H](NC(=O)[C@H](Cc1ccc(O)cc1)NC(=O)[C@@H]1CCC(=O)NC[C@H](N)C(=O)N[C@@H](CCCCN)C(=O)N[C@@H](CCCCN)C(=O)N1)C(=O)O [compound 98, c[DapKKE]YL] (H-[Dap]KKEYL-OH; lactam 1-4) | 8.18 | >12.2 | > 100 |
| CCCC[C@@H]1NC(=O)[C@H](CCCCN)NC(=O)[C@@H](N)CC=CC[C@@H](C(=O)N[C@@H](Cc2ccc(O)cc2)C(=O)N[C@@H](CC(C)C)C(=O)O)NC1=O [compound 57, c[G(All)KNleG(All)]YL] (H-[AllylGly]K[Nle][AllylGly]YL-OH; staple 1-4) | 0.716 | >140 | > 100 |
| CC(C)C[C@H](NC(=O)C1(NC(=O)[C@@H]2CC=CC[C@H](N)C(=O)N[C@@H](CCCCN)C(=O)N[C@@H](CCCCN)C(=O)N2)Cc2ccccc2C1)C(=O)O [compound 164, c[G(All)KKG(All)]G(indanyl)L] (H-[AllylGly]KK[AllylGly][Aic]L-OH; staple 1-4) | 10 | 10 | > 100 |
| CC(C)C[C@H](NC(=O)[C@H](Cc1ccc(O)cc1)NC(=O)[C@@H]1CC=CC[C@H](N)C(=O)N[C@@H](CCCNC(N)=O)C(=O)N[C@@H](CCCNC(N)=O)C(=O)N1)C(=O)O [compound 148, c[G(All)citrulline-citrullineG (All)]YL] (H-[AllylGly][Cit][Cit][AllylGly]YL-OH; staple 1-4) | 7.9 | 13 | > 100 |
